Experimental findings from PMC12068008 (International Journal of Molecular Sciences, 2024) are described below.

SMILES strings stand for the structures.

The nature of data set [1]: Metal-chelating assay, binding stoichiometry (molar ratio method), Zn2+. The format is physicochemical. Particulars: ethanol, 30 min, compound 5 × 10^−5 M, one ion coordinates with two molecules. The protocol: Binding stoichiometry was determined using the molar ratio method, with increasing concentrations of metal ions (from 0 to 1.5 × 10^−4 M) (Figures S1 and S2). Absorption spectra were collected 30 min after mixing. The change in absorption at the wavelength of maximum absorbance for the formed complex was plotted against the metal ion (M^2+ = Cu^2+, Zn^2+, and Fe^2+) to compound ratio (cM^2+/ccompound) and is presented in Figure 3. This graph allows the determination of the binding ratio between the newly synthesized compounds and metal ions. […] In contrast, the results for Fe^2+ indicate that only one Fe^2+ ion can bind to both compounds.
The metal-chelating ability of synthesized compounds in ethanol was assessed using UV/Vis spectrophotometer (Lambda 35, Perkin Elmer) recording spectra over a wavelength range of 230–600 nm in a 1 cm quartz cell. The mixture of compound at 5 × 10^−5 M of final concentration and metal ions at 1 × 10^−4 M of final concentration was incubated for 30 min at room temperature. The tested temperature was 25 °C. […]
The binding stoichiometry was assessed by adding increasing concentrations of metal ions (0–1.5 × 10^−4 M) to a fixed concentration of compound (5 × 10^−5 M) and incubating the mixture for 30 min at room temperature. The spectra were then measured as described above, and the ligand-to-metal chelation ratio in the complex was calculated.

The nature of data set [2]: DPPH radical scavenging assay. Particulars: 30 min incubation, 25 °C. How it is done:
DPPH (2,2-diphenyl-1-picrylhydrazyl) radical scavenging assay was used to assess free-radical scavenging activity of synthesized compounds. Initially, 1 × 10^−4 M working solution of DPPH was prepared, and 350 µL was added to 350 µL of the solution of each compound. The final concentrations of the compounds (Q, 2a, and 2b) in the samples were 1 × 10^−3 M, 1 × 10^−4 M, and 1 × 10^−5 M. The control included ethanol only and DPPH–ethanol solution without compounds. The mixtures were incubated at 25 °C in the dark for 30 min. After incubation, the absorbance of the samples at 517 nm was measured in duplicate by using a UV/Vis spectrophotometer (Lambda 35, Perkin Elmer, Waltham, MA, USA). The DPPH radical scavenging ability was calculated using the following equation:(1) Antioxidative activity(%)=Acontrol−Asample/Acontrol×100% where Asample and Acontrol represent the absorbance at 517 nm of the sample and control, respectively. All samples were analysed in duplicate.
(DPPH is a stable violet radical that fades when it is reduced.)

The next data set has as its target eqBuChE (Equus caballus, UniProt P81908). Nature of the data set: BuChE inhibition (Ellman's procedure). The settings on record: 37 °C; for IC50: read-out: IC50 BChE; for inhibition at 100 µM: at 1 × 10^−4 M, read-out: Percentage Inhibition BuChE. Type of data set: biochemical. How it is done: (§1) The abilities of compounds to inhibit AChE and BuChE activity were determined following Ellman’s procedure, with AChI and BuChI as the enzyme substrate, respectively, and DTNB as a chromogenic reagent. AChE’s and BuChE’s working solutions were prepared at 20 mM TRIS and deionized water, respectively. AChI and BuChI solutions were prepared in deionized water. A 0.01 M DTNB solution was prepared with 0.1 M phosphate buffer (pH 7) containing 0.15% (w/v) sodium bicarbonate. Stock solutions (10 mM) of investigated compounds were prepared daily by dissolving solid compounds in DMSO. The reaction mixture containing phosphate buffer, DTNB, enzyme, and compound was preincubated 30 min at 37 °C. After the preincubation time, the enzyme reaction was initiated by adding appropriate substrate and left to incubate for 6 min. After incubation, 0.1 M SDS was added to stop the reaction. Absorbance measurements were performed using a UV/Vis spectrophotometer (Lambda 35, Perkin Elmer), measuring absorbance at 412 nm. A blank assay, containing all components except the enzyme, was used to account for non-enzyme reactions. The control solution contained all components except the inhibitor. All experiments were conducted in triplicate, and the results are expressed as the mean percentage enzyme activity compared to the control value. IC50 values were determined graphically using Origin 9 Microsoft Windows.

The next data set deals with eeAChE (Electrophorus electricus, UniProt O42275). Nature of the data set: biochemical. Particulars: at 1 × 10^−4 M, 37 °C; for inhibition at 100 µM: read-out: Percentage Inhibition AChE. How it is done:
as §1, with “A 0.01 M DTNB solution was prepared with 0.1 M phosphate buffer (pH 7) containing 0.15% (w/v) sodium bicarbonate.” left out, “Absorbance measurements were performed using a UV/Vis spectrophotometer (Lambda 35, Perkin Elmer), measuring absorbance at 412 nm.” left out

The test system of a further data set is MDA-MB-231 cells. Nature of the data set: SRB assay, MDA-MB-231 cells. The format is cell-based. The settings on record: for IC50: Homo sapiens, MDA-MB-231, 72 h after treatment, SRB, read-out: IC50 MDA-231. The protocol: All cell lines were cultured in Dulbecco’s Modified Eagle’s Medium (DMEM) with 4500 mg/L glucose and L-glutamine (Capricorn Scientific, Ebsdorfergrund, Germany), supplemented with 10% foetal bovine serum (PAN-Biotech, Aidenbach, Germany), 10,000 U/mL penicillin, and 10 mg/mL streptomycin solution (Capricorn Scientific) under standard conditions at 37 °C in a humidified 5% CO2 atmosphere (ESCO, Lifesciences Group, Singapore).
Cells were seeded on a 96-well plate (Thermo Fisher Scientific, Waltham, MA, USA) at 2 × 10^3 cells per well in DMEM medium. For the analysis of the concentration- and time-dependent effect of the analysed compounds, cell monolayers were treated 24 h after seeding with concentrations 1 × 10^−6, 1 × 10^−5, and 1 × 10^−4 M for 24, 48, or 72 h. Cell viability was detected using sulforhodamine B (SRB) assay, based on the staining of cellular proteins. The assay was performed according to the procedure described by Skehan et al.. The cells were fixed with 10% trichloroacetic acid (TCA, CARLO ERBA Reagents GmbH, Emmendingen, Germany) for 1 h at 4 °C, washed with water, and stained for 15 min with 0.4% SRB (Sigma-Aldrich Chemie GmbH, Steinheim, Germany) in 1% acetic acid. The unbound SRB dye was rinsed with 1% acetic acid, while the protein-bound dye was extracted with a 10 mM Tris base (Sigma-Aldrich). […] The results were expressed as a percentage of the control, where the cell growth of the control is set to 100%. […] The selectivity index (SI) was determined according to the following formula:(2) SI=IC50 for fibroblast cell line/IC50 for tumour cell line
The assay was performed two times in 4 replicates for every experimental group. The statistical significance of differences between treated and untreated cells was estimated by the independent Student’s t-test, with the level of significance set at p < 0.05.
On the technique in general: In SRB staining, fixed cells bind dye roughly in proportion to their protein.

Chain of eqBuChE (P81908 whole entry): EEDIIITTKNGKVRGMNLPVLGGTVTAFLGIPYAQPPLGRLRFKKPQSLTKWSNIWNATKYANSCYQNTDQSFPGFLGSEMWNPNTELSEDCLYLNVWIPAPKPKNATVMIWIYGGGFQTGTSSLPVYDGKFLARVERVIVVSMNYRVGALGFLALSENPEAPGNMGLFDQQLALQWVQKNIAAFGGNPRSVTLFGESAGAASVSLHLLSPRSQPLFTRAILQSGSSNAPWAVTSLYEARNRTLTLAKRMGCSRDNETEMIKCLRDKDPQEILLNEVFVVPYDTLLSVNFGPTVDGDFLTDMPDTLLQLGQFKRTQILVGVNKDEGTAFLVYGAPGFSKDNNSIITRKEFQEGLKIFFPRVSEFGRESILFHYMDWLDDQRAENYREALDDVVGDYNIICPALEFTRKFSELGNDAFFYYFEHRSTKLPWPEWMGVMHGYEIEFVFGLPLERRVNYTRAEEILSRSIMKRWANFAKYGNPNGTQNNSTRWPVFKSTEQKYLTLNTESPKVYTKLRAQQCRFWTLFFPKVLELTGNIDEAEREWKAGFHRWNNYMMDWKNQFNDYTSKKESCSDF
Chain of eeAChE (O42275 24-633): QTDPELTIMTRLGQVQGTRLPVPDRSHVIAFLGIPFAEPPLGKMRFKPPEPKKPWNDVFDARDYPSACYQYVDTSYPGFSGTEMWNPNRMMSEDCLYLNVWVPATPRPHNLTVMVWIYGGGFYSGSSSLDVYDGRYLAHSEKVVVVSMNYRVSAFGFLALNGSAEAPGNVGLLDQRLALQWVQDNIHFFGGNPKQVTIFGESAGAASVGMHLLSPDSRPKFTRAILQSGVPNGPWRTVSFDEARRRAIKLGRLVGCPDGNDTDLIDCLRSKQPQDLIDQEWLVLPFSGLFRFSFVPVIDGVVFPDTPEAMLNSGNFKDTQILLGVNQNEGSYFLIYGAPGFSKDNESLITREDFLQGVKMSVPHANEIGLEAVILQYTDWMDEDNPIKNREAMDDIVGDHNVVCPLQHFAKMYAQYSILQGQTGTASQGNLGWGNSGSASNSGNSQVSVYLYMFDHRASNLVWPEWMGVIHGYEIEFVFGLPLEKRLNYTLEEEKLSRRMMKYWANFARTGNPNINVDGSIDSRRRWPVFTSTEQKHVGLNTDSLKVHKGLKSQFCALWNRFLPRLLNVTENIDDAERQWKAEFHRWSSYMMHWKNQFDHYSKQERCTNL

As a reminder, the IC50 is the midpoint of a concentration-inhibition curve. What is called inhibition is the drop in the measured response relative to a control, in per cent. Regarding `COc1cc2c(cc1OC)CN(Cc1c(O)cc(O)c3c(=O)c(O)c(-c4ccc(O)c(O)c4)oc13)CC2` [Compound 2b], in data set [1], the “binding stoichiometry Zn^2+” value is 2. The figures for the IC50 (in data set [2]; on eqBuChE; with MDA-MB-231 cells) were 10.2 µM, 41.1 µM and 106 ± 5 µM, respectively. For the same compound, the figures for the inhibition at 100 µM at eqBuChE and on eeAChE were 67.6% and 15%, respectively. For the same compound, the “Percentage Inhibition AChE” value on eeAChE came out at 15.4%.

With `O=c1c(O)c(-c2ccc(O)c(O)c2)oc2c(CN3CCc4ccccc4C3)c(O)cc(O)c12` [Compound 2a], the “binding stoichiometry Zn^2+” value in data set [1] worked out at 2. Also, the results for the IC50 (in data set [2]; at eqBuChE; with MDA-MB-231 cells) were 1.59 µM, 16.9 µM and 146 ± 7 µM, respectively. Besides, the inhibition at 100 µM at eqBuChE was determined as 70%; on eeAChE, 33.3%. In addition, in the data set with MDA-MB-231 cells (72 h), the “Viability of MDA-231 cells” value is on record as “recovered to the control level or even increased”.
